Measurements published in patent publication US11547681B2, “N-acylethanolamide derivatives and uses thereof” (ELIEM THERAPEUTICS, INC., priority 2016, dated 2023).

Experiments:
[1] = PEA levels in New Zealand White rabbit plasma samples after oral administration; type: in vivo; settings: individual rabbits; Group 3, 32 mg/kg/day; total PEA, ~5 h after morning dosing; listed as PEA-prodrug
Source text: The present Example describes PEA levels observed in rabbit plasma samples after oral administration of compound(s) provided herein. Blood samples were taken approximately five hours after the morning dosing.
Plasma samples from the current study were not treated to prolong the post-collection stability of the prodrug. Instead, all samples were allowed to stand, thawed and untreated, at room temperature for four hours prior to extraction and analysis. This strategy allowed for any remaining prodrug in the sample to convert to PEA. All reported concentrations are total PEA in the sample.
Seventy-nine New Zealand White rabbit plasma samples were analyzed with a previously developed LC-MS/MS method for the detection of palmitoylethanolamide (PEA). A total of 79 plasma samples were received for analysis. All samples were received frozen in good condition. Samples were stored at −80° C. until analysis.
An LC-MS/MS method for the determination of PEA in plasma was used to quantify samples in this study. See, e.g., Example 3. Study samples were extracted using the methods described in Examples 3-5.

[2] = Microsome/S9 fraction control (reaction mixture without microsomal proteins); type: in vitro ADME; settings: for Concentration of analyte I-9: dosed I-9 2 μM
Procedure: As a control for the liver microsome and intestinal S9 fraction studies, additional experiments were run in reaction mixture, with the exclusion of microsomal proteins. The reaction mixture was prepared as described below. […] Individual tubes were dosed for each time point (0, 10, 20, 30, and 60 minutes). At the appropriate time, 500 μL of ice-cold acetonitrile containing 0.1% formic acid and internal standard was added to a single tube. The starting time of each tube was staggered so that all timepoints finished simultaneously. […] Calibration standards were prepared in matched matrix. […] Analytical conditions are outlined in Appendix 4-1.

[3] = Simulated gastric fluid (SGF) stability, with and without pepsin; type: in vitro ADME; settings: pH 1.2, 2 μM
Procedure: Studies were carried out in simulated gastric fluid (SGF). SGF was prepared by dissolving 2.0 g of NaCl and 3.2 g of purified pepsin (derived from porcine stomach mucosa) in 7 mL of 10 N HCl and sufficient water to make 1000 mL. The pH was adjusted to pH 1.2. Control experiments were also run without the addition of pepsin to the matrix. The test article was added into the SGF at 37° C. at a final concentration of 2 μM, and incubated in a shaking water bath at 37° C. Individual tubes were dosed for each time point (0, 15, 30, 60, and 120 minutes). At the appropriate time, 500 μL of ice-cold acetonitrile containing 0.1% formic acid and internal standard was added to a single tube. The starting time of each tube was staggered so that all timepoints finished simultaneously. The samples were then mixed and centrifuged. Calibration standards were prepared in matched matrix. […] Analytical conditions are outlined in Appendix 4-1.

[4] = as above; type: in vitro ADME; settings: for Concentration of analyte I-9: dosed I-9 2 μM
[5] = Stability of PEA-prodrug in Sprague-Dawley rat plasma and acidified rat plasma (90 minutes, ice or RT); type: in vitro ADME; settings: 1 μg/mL
Procedure: The stability of the PEA-prodrug I-9 was assessed in Sprague-Dawley rat plasma containing sodium heparin as the anticoagulant, and in acidified rat plasma containing citric acid and formic acid. The acidified plasma was prepared by collecting Sprague-Dawley rat […] over sodium heparin and adding 100 μL of 0.5 M citric acid per mL of blood. The blood was centrifuged to generate plasma, and then 100 μL of 10% formic acid was added per mL of plasma.
PEA-prodrug was added to each matrix to a final concentration of 1 μg/mL. Triplicate aliquots (50 μL) were immediately collected and added to 150 μL of acetonitrile containing internal standard. The remaining plasma aliquots were split equally. One aliquot was allowed to stand at room temperature while the second was placed on ice. After ninety minutes, triplicate aliquots of each sample were collected and added to acetonitrile. The samples were centrifuged at 13000 rpm for ten minutes, and the resulting supernatant was analyzed using the developed LC-MS/MS method. The peak area response ratios (PARR) of the analyte and internal standard from the incubated samples were then compared to the initial sample to determine the percent PEA prodrug remaining.

For `CCCCCCCCCCCCCCCC(=O)NCCOC(=O)CCC(=O)OCC(O)CO` (centres unmarked) [Compound I-9], the “PEA concentration in plasma, Day 7” value [1] was “BLOQ (below the limit of quantitation (2.5 ng/mL))”, the “Concentration of analyte I-9” value ([2]; 0 min) was 2240 nM and the “Concentration of analyte I-9” value ([2]; 10 min) was 1470 nM. For the same molecule, the “Concentration of analyte I-9” value ([2]; 20 min) was 1720 nM, the “Concentration of analyte I-9” value ([2]; 30 min) was 1500 nM and the “Concentration of analyte I-9” value ([2]; 60 min) was 1380 nM. The half-life at 2 μM ([2]; microsome/S9 reaction mixture without microsomal proteins, no microsomal proteins, pH 7.4, 2 μM) was over 1 h, the “% Remaining of Initial (n = 1)” value ([2]; no microsomal proteins, pH 7.4, 2 μM, 0 min) was 100% and the “% Remaining of Initial (n = 1)” value ([2]; no microsomal proteins, pH 7.4, 2 μM, 10 min) was 66%. The “% Remaining of Initial (n = 1)” value ([2]; no microsomal proteins, pH 7.4, 2 μM, 20 min) was 77%, the “% Remaining of Initial (n = 1)” value ([2]; no microsomal proteins, pH 7.4, 2 μM, 30 min) was 67% and the “% Remaining of Initial (n = 1)” value ([2]; no microsomal proteins, pH 7.4, 2 μM, 60 min) was 62%. The “% Remaining of Initial (n = 1)” value ([3]; SGF w/o pepsin, 30 min) was 84%, the “% Remaining of Initial (n = 1)” value ([3]; SGF w/o pepsin, 120 min) was 71% and the “% Remaining of Initial (n = 1)” value ([3]; SGF w/pepsin, 0 min) was 100%. For the same molecule, the “% Remaining of Initial (n = 1)” value ([3]; SGF w/pepsin, 15 min) was 95%, the “% Remaining of Initial (n = 1)” value ([3]; SGF w/pepsin, 60 min) was 92% and the half-life at 2 μM ([3]; simulated gastric fluid without pepsin, SGF w/o pepsin) was over 2 h. The “% Remaining of Initial (n = 1)” value ([4]; SGF w/o pepsin, pH 1.2, 2 μM, 0 min) was 100%, the “% Remaining of Initial (n = 1)” value ([4]; SGF w/o pepsin, pH 1.2, 2 μM, 15 min) was 93% and the “% Remaining of Initial (n = 1)” value ([4]; SGF w/o pepsin, pH 1.2, 2 μM, 60 min) was 72%. For the same molecule, the “% Remaining of Initial (n = 1)” value ([4]; SGF w/pepsin, pH 1.2, 2 μM, 30 min) was 80%, the “% Remaining of Initial (n = 1)” value ([4]; SGF w/pepsin, pH 1.2, 2 μM, 120 min) was 86% and the “Concentration of analyte I-9” value ([4]; Matrix 'Human', 0 min) was 1520 nM. For the same molecule, the “Concentration of analyte I-9” value ([4]; Matrix 'Human', head 10 min) was 1450 nM, the “Concentration of analyte I-9” value ([4]; Matrix 'Human', head 20 min) was 1210 nM and the “Concentration of analyte I-9” value ([4]; Matrix 'Human', head 30 min) was 1400 nM. For the same molecule, the “Concentration of analyte I-9” value ([4]; Matrix 'Human', head 60 min) was 1310 nM, the “Concentration of analyte I-9” value ([4]; Matrix 'Rat', 0 min) was 2070 nM and the “Concentration of analyte I-9” value ([4]; Matrix 'Rat', head 10 min) was 1930 nM. The “Concentration of analyte I-9” value ([4]; Matrix 'Rat', head 20 min) was 1740 nM, the “Concentration of analyte I-9” value ([4]; Matrix 'Rat', head 30 min) was 1490 nM and the “Concentration of analyte I-9” value ([4]; Matrix 'Rat', head 60 min) was 1480 nM. For the same molecule, the half-life at 2 μM ([4]; pig, simulated gastric fluid with pepsin, SGF w/pepsin, pH 1.2, 2 μM) was over 2 h, the “% Remaining” value ([5]; acidified rat plasma (citric and formic acid), RT) was 96.0% and the “% Remaining” value ([5]; acidified rat plasma (citric and formic acid), ice) was 107%. For the same molecule, the “% Remaining” value ([5]; rat plasma (sodium heparin), RT) was 0.203% and the “% Remaining” value ([5]; rat plasma (sodium heparin), ice) was 73.4%.
